The text below walks through data of patent US20250179013A1, “INHIBITORS OF RNA HELICASE DHX9 AND USES THEREOF” (ACCENT THERAPEUTICS, INC., priority 2022, published 2025).

The target of experiment [1] is T1, Human recombinant DHX9 protein (Homo sapiens, UniProt Q08211).
T1 construct: purchased Viva
The experiment can be described thus: DHX9 ATPase assay (ADP-Glo biochemical assay).

Experiment [2] has as its system DHX9 (circBRIP1 mRNA in HCT116 cells). Briefly: DHX9 circBRIP1 Cellular Target Engagement TaqMan Multiplex Assay. The format is cell-based. The settings on record: Homo sapiens, HCT-116, TaqMan Multiplex Assay (footnote *), circBRIP1 qPCR, 72 hours. On the technique in general: Quantitative PCR measures a nucleic acid by following its amplification.
For a further experiment, the system named is LS411N cells. Briefly: DHX9 Cellular Proliferation Assay (CellTiter-Glo), LS411N. It is filed as cell-based. As to conditions: Homo sapiens, LS-411N, 120 hours, read-out: LS411N (CRC-MSI-H) Antiproliferative IC50. In general terms: Cellular ATP, detected with luciferase, serves as a proxy for viable cell number.
Another experiment concerns NCI-H747 cells. Briefly: DHX9 Cellular Proliferation Assay (CellTiter-Glo), NCI-H747. As to conditions: Homo sapiens, 120 hours, read-out: H747 (CRC-MSS) Antiproliferative IC50. The format is cell-based.

pEC50, pIC50: −log10 of the molar value.

T1 sequence (Q08211 whole entry): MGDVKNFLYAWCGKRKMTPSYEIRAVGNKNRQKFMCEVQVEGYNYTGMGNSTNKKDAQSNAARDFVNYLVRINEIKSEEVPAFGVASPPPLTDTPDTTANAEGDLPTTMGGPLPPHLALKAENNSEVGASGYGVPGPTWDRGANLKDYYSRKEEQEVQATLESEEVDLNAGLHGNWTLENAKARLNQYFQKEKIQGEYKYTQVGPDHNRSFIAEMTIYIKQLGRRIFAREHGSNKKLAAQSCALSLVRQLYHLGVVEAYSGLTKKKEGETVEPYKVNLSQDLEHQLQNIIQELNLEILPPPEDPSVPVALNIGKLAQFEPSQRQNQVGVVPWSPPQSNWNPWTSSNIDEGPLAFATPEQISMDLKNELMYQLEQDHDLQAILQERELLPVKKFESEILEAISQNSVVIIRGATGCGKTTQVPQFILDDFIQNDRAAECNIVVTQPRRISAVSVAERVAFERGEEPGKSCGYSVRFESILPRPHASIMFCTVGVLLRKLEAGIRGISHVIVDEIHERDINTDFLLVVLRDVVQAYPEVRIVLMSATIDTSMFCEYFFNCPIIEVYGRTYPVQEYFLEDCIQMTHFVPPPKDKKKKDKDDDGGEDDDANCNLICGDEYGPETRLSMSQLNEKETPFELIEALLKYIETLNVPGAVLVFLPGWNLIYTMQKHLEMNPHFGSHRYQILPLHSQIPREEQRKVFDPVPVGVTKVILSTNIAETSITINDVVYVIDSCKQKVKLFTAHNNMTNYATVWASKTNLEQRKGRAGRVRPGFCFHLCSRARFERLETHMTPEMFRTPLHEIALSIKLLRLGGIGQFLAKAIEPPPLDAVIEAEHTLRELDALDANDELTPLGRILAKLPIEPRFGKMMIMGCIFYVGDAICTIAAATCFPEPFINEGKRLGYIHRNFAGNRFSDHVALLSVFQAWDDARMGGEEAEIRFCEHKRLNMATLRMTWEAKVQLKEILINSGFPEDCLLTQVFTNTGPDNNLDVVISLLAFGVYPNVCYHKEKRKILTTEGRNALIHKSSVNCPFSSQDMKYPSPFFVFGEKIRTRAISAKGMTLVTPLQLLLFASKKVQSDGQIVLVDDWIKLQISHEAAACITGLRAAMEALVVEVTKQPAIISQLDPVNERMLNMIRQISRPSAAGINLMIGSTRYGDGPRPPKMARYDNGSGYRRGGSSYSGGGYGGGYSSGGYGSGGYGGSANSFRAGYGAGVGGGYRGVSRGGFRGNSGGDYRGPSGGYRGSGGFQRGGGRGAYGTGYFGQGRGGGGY

As to `Cn1cc(C(=O)Nc2cccc(NS(C)(=O)=O)c2)cc1-c1ccc(N2CC(F)(F)C2)cn1` [Example 160, 5-[5-(3,3-difluoroazetidin-1-yl)pyridin-2-yl]-N-(3-methanesulfonamidophenyl)-1-methylpyrrole-3-carboxamide], the “DHX9 Biochemical Max Inhibition” value in experiment [1] (maximum inhibition in ATPase assay, 10 μM Aurintricarboxylic acid = 100%) is 89.6%. Also, the results for the pIC50 (in experiment [1] (read-out: DHX9 Biochemical Inflection Point); in the experiment with LS411N cells; with NCI-H747 cells) were 7.55, 5.02 and < 5.00, respectively. In addition, the pEC50 in experiment [2] was 5.85.

One may read the pEC50 as the negative decadic logarithm of the EC50, by convention in mol/L. A higher pEC50 goes with a small EC50.
